Measurements taken from PubChem BioAssay (NCI).
“And” between values parts separate entries of the source, which are not always exact repeats. Equal values may be shown once.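 A five-concentration, 48-hour dose response in 96-well plates underlies each endpoint, interpolated linearly between surrounding concentrations. At the GI50, growth is halved. TGI marks complete inhibition of growth.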

Columns and labels:
Experiment in all cases: inhibition of tumour cell growth, NCI panel, 48 h
[1] = test system: MCF7 breast
[2] = test system: MOLT-4 leukemia
[3] = test system: KM12 colon
[4] = test system: OVCAR-3 ovarian
[5] = test system: HOP-62 NSCLC
[6] = test system: SR leukemia
[7] = test system: HOP-92 NSCLC
[8] = test system: EKVX NSCLC
[9] = test system: SK-MEL-2 melanoma
[10] = test system: MDA-N

| SMILES | TGI [1] [µM] | TGI [2] [µM] | TGI [3] [µM] | TGI [4] [µM] | TGI [5] | TGI [6] [µM] | TGI [7] [µM] | TGI [8] [µM] | TGI [9] [µM] | TGI [10] [µM] | GI50 [1] [µM] | GI50 [2] [µM] | GI50 [3] [µM] | GI50 [4] [µM] | GI50 [5] [µM] | GI50 [6] [µM] | GI50 [7] [µM] | GI50 [9] [µM] |
| --- | --- | --- | --- | --- | --- | --- | --- | --- | --- | --- | --- | --- | --- | --- | --- | --- | --- | --- |
| CCOC(=O)c1cc(C)nc2c1c(=O)n(-c1ccccc1)c(=O)n2CCCCN1CCN(c2ncccn2)CC1 | > 100 | > 100 | > 100 | > 100 | > 100 µM | > 100 | > 100 | > 100 | > 100 | > 100 | – | – | – | – | – | – | – | – |
| O=C1Nc2ccc(Br)cc2/C1=N/N1C(=O)C(=O)N(C2CCCCC2)C1=S | 15.6 | 16.5 | 14.6 | 10.5 | 14.3 µM | 10.6 | 53.7 | 23.1 | 4.34 | 7.56 | – | – | – | – | – | – | – | – |
| COc1cc(/C=C/C(=N\NC(N)=S)c2sc(NNC(C)=O)nc2C)ccc1O | > 100 | > 100 | > 100 | > 100 | > 100 µM | > 100 | > 100 | > 100 | > 100 | > 100 | – | – | – | – | – | – | – | – |
| O=C(O)c1nn(-c2ccccc2)nc1-c1nn(-c2ccccc2)nc1C(=O)O | > 100 | > 100 | > 100 | > 100 | > 100 µM | > 100 | > 100 | > 100 | > 100 | > 100 | – | – | – | – | – | – | – | – |
| CCOC(=O)NN(C(=O)OCC)C(C(=O)c1ccccc1)N(NC(=O)OCC)C(=O)OCC | > 100 | > 100 | > 100 | > 100 | > 100 µM | > 100 | > 100 | > 100 | – | > 100 | – | – | – | – | – | – | – | – |
| C(=N\NC1=NCCN1)/c1ccc2ccccc2c1 | 32.3 | 42.8 | 28 | 32.9 | 31 µM | > 100 | 13.3 | 50.8 | 38 | 27.9 | – | – | – | – | – | – | – | – |
| Cc1[nH]c2nccn2c(=O)c1CCO | > 10 | > 10 | > 10 | > 10 | > 10 µM | > 10 | > 10 | > 10 | – | > 10 | – | – | – | – | – | – | – | – |
| C/C(=N\NC(N)=S)c1nc2ncccc2[nH]1 | > 100 | > 100 | > 100 | > 100 | > 100 µM | > 100 | > 100 | > 100 | > 100 | > 100 | – | – | – | – | – | – | – | – |
| CN1C(=O)C23CCCC2CC1(c1ccccc1)S3 (stereo not given) | > 100 | > 100 | > 100 | > 100 | > 100 µM | > 100 | > 100 | > 100 | > 100 | > 100 | – | – | – | – | – | – | – | – |
| CC(NNC(=O)c1ccncc1)c1cccc(C(F)(F)F)c1 (stereo not given) | > 100 | > 100 | > 100 | – | > 100 µM | > 100 | > 100 | > 100 | > 100 | > 100 | – | – | – | – | – | – | – | – |
| CSc1ncc2c(n1)-c1ccccc1OC2 | > 100 | > 100 | > 100 | > 100 | – | > 100 | 86.9 | > 100 | > 100 | > 100 | – | – | – | – | – | – | – | – |
| COC(=O)c1c2c(cc3c1CC1(Cc4ccccc4C1)C3)CCC2 | 23.4 | 40.2 | 70.2 | 47.6 | > 100 µM | 54.2 | > 100 | 98.7 | – | 33.9 | – | – | – | – | – | – | – | – |
| CCNC(=S)NNC(=O)c1ccccc1Nc1ccccc1C(=O)NNC(=S)NCC | > 100 | > 100 | > 100 | > 100 | > 100 µM | > 100 | > 100 | > 100 | > 100 | > 100 | – | – | – | – | – | – | – | – |
| NC1=Nc2ccccc2Sc2cccc(F)c21 | > 100 | > 100 | > 100 | > 100 | > 100 µM | > 100 | > 100 | > 100 | > 100 | > 100 | – | – | – | – | – | – | – | – |
| CNC(=O)CNC(=O)N(C[C@@H]1CCCN1C(=O)[C@H](CC(C)C)NC(=O)OC(C)(C)C)C(C)C | > 100 | > 100 | > 100 | > 100 | > 100 µM | > 100 | – | > 100 | > 100 | > 100 | – | – | – | – | – | – | – | – |
| COc1cc(S(=O)(=O)Nc2ccc(-c3csc(N4C(=O)CSC4c4ccccc4O)n3)cc2)ccc1Cl (stereo not given) | > 100 | > 100 | > 100 | > 100 | > 100 µM | > 100 | 82.1 | 85.5 | > 100 | > 100 | – | – | – | – | – | – | – | – |
| Cc1nc2ccc(NC3OCC(O)C(O)C3O)cc2c(=O)n1-c1ccccc1 (stereo not given) | > 100 | > 100 | > 100 | > 100 | > 100 µM | > 100 | – | > 100 | > 100 | > 100 | – | – | – | – | – | – | – | – |
| COc1ccc([I+]c2ccc(OC)cc2)cc1 | > 100 | > 100 | > 100 | > 100 | > 73.2 µM and 92 µM | > 100 | > 100 | > 100 | > 100 | > 38.3 | 7.26 | 55.4 | 6.63 | 11.8 | 3.34 | 3.81 | 3.27 | 43.9 |
| COC(=O)c1ccccc1C1CN=NC12Cc1ccc3c(c1C2=O)CCC3 (stereo not given) | > 100 | > 100 | > 100 | > 100 | > 100 µM | – | > 100 | > 100 | > 100 | > 100 | – | – | – | – | – | – | – | – |
| COc1ccc2c(c1)/c(=C/C#N)c1c3ccccc3[n+](C)n21 | > 55.9 | > 57.2 | 17.9 | 4.29 | 29.6 µM | > 100 | 5.89 | 16.5 | 36.1 | 40.9 | – | – | – | – | – | – | – | – |
| CC[C@]12C=CCN3CC[C@@]4(c5cc(Br)c(OC)cc5N(C)[C@H]4[C@@](O)(C(=O)NC(Cc4c[nH]c5ccccc45)C(=O)OC)[C@@H]1O)[C@@H]32 (stereo not given in full) | > 100 | > 100 | > 100 | > 100 | > 100 µM | 34.9 | > 100 | > 100 | > 100 | > 100 | – | – | – | – | – | – | – | – |
